Experimental data reported in PubChem BioAssay AID1919014 (Molecular Pharmacology Branch, DTP, NCI, 2023).
pIC50: −log10 of the molar value.

Test system: NCI-H1341 complex spheroids, percent test/control
Assay: Anticancer human tumor NCI-H1341 cell line growth inhibition [AhR];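 note: spheroids exposed to agents for seven days before readout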
Settings: for pIC50: curve of first compound; for viability, T/C: stronger effect = lower value
Description: Multicellular complex tumor spheroid response to aryl hydrocarbon receptor antagonists in combination with a variety of drugs and investigational agents in selected tumor cell lines
The current study was undertaken to assess response to aryl hydrocarbon receptor antagonists in combination with standard-of-care drugs and investigational agents in solid tumor complex spheroid models. Complex spheroids include a stromal component modeled by human endothelial cells (HUVEC) and fibroblasts modeled by human mesenchymal stem cells (MSCs). The concentration ranges selected for each drug and investigational agent were based upon clinically achievable concentrations if the clinical Cmax of the agent was known.
Compounds. The drugs and investigational agents: BAY 2416964 (NSC825713), GNF351 (NSC835774), CH-223191 (NSC835775), CPI-455 (NSC825282), aza-TdCyd (NSC777586), decitabine (NSC127716), belinostat (NSC758774), entinostat (NSC756642), pevonedistat (NSC761192), tazemetostat (NSC777109), talazoparib (NSC765396), olaparib (NSC753686), selinexor (NSC780203), nedisertib (M3814, NSC802822), bortezomib (NSC756655), venetoclax (NSC766270), doxorubicin (NSC123127), elimusertib (BAY189344, NSC800525), ceralasertib (AZD6738, NSC777638), TAK-243 (NSC785004), alisertib (NSC759677), etoposide (NSC141540), topotecan (NSC609699), eribulin (NSC707389), gemcitabine (NSC613327), carboplatin (NSC241240), cisplatin (NSC119875), and SN-38 (NSC673596) were obtained from the National Cancer Institute (NCI) Developmental Therapeutics Program Chemical Repository (32). The FDA-approved anticancer drug set is available from the Developmental Therapeutics Program at https://dtp.cancer.gov/organization/dscb/obtaining/available plates.htm. […] The stock solutions were prepared in dimethyl sulfoxide (DMSO, Sigma-Aldrich, St. Louis, MO, cat. D2650), except for the platinum compounds which were prepared in saline (Quality Biological, Gaithersburg, MD, cat. 114-055-101), at 800-fold the tested concentration and stored at -70 degrees C prior to their use. All drugs and investigational agents were tested over a range starting from a high concentration at or near the clinical Cmax and decreasing in half-log increments. If the clinical Cmax for an agent had not been determined, the highest concentration tested was 10 microM (Table 1).
Cell Culture. All cells were maintained in an incubator at 37 degrees C and 5% CO2 with 95% humidity. The PDC lines were cultured according to standard operating procedures established by the NCI PDMR (https://pdmr.cancer.gov). Briefly, all PDCs were thawed and cultured in Matrigel-coated flasks prepared with a working solution of 1X Ham's F-12 nutrient mix, without supplementation (Invitrogen, Waltham, MA, cat. 11765054), 100 U/mL penicillin-streptomycin (Invitrogen, cat. 15140122), and 2.5% Matrigel (Corning Inc., Corning, NY, cat. 354248) for the first three passages. All PDCs were cultured in complete DMEM/F-12 media containing advanced DMEM/F-12 (Invitrogen, cat. 12634028), 4.9% defined fetal bovine serum, heat inactivated (HyClone Laboratories Inc., Logan, UT, cat. SH30070.03HI), 389 ng/mL hydrocortisone (Sigma-Aldrich, cat. H4001), 9.7 ng/mL human EGF recombinant protein (Invitrogen, cat. PHG0313), 23.4 microg/mL adenine (Sigma-Aldrich, cat. A2786), 97.3 U/mL penicillin-streptomycin (Invitrogen, cat. 15140122), 1.9 mM L-glutamine (Invitrogen, cat. 25030081), and 9.7 microM Y-27632 dihydrochloride (Tocris Bioscience, Bristol, United Kingdom, cat. 1254). The PDCs were cultured in complete DMEM/F12 media without 10 microM Y-27632 dihydrochloride for at least two passages prior to the screen. The established cell lines NCI-H1341 and […] were cultured in DMEM/F-12, HEPES (Invitrogen, cat. 11330032), 5% defined fetal bovine serum (HyClone Laboratories Inc., cat. SH30070.03), ITS premix universal culture supplement [insulin (5 microg/mL), transferrin (5 microg/mL), and selenious acid (5 ng/mL)] […]

[1] = second compound 0.1 µM, first compound 0.0316 µM
[2] = second compound 0.1 µM, first compound 0.1 µM
[3] = second compound 0.1 µM, first compound 0.316 µM
[4] = second compound 0.1 µM, first compound 1 µM
[5] = second compound 0.1 µM, first compound 3.16 µM
[6] = second compound 0.1 µM, first compound 10 µM
[7] = second compound 0.316 µM, first compound 0.0316 µM
[8] = second compound 0.316 µM, first compound 0.1 µM
[9] = second compound 0.316 µM, first compound 0.316 µM
[10] = second compound 0.316 µM, first compound 1 µM
[11] = second compound 0.316 µM, first compound 3.16 µM
[12] = second compound 0.316 µM, first compound 10 µM
[13] = second compound 1 µM, first compound 0.0316 µM
[14] = second compound 1 µM, first compound 0.1 µM
[15] = second compound 1 µM, first compound 0.316 µM
[16] = second compound 1 µM, first compound 1 µM
[17] = second compound 1 µM, first compound 3.16 µM
[18] = second compound 1 µM, first compound 10 µM
[19] = second compound 3.16 µM, first compound 0.0316 µM
[20] = second compound 3.16 µM, first compound 0.1 µM
[21] = second compound 3.16 µM, first compound 0.316 µM
[22] = second compound 3.16 µM, first compound 1 µM
[23] = second compound 3.16 µM, first compound 3.16 µM
[24] = second compound 3.16 µM, first compound 10 µM
[25] = second compound 10 µM, first compound 0.0316 µM
[26] = second compound 10 µM, first compound 0.1 µM
[27] = second compound 10 µM, first compound 0.316 µM
[28] = second compound 10 µM, first compound 1 µM
[29] = second compound 10 µM, first compound 3.16 µM
[30] = second compound 10 µM, first compound 10 µM

Nc1ccccc1NC(=O)c1ccc(CNC(=O)OCc2cccnc2)cc1 + CC(CO)NC(=O)c1cc(-c2ccc(Cl)cc2)nn(-c2cnn(C)c2)c1=O
pIC50 (second compound 0.1 µM): 6.84
pIC50 (second compound 0.316 µM): 6.69
pIC50 (second compound 1 µM): 6.73
pIC50 (second compound 3.16 µM): 6.88
pIC50 (second compound 10 µM): 7.28
viability, T/C [1]: 66.7%
viability, T/C [2]: 58.1%
viability, T/C [3]: 34.4%
viability, T/C [4]: 14.8%
viability, T/C [5]: 6.51%
viability, T/C [6]: 0.25%
viability, T/C [7]: 74.3%
viability, T/C [8]: 60.1%
viability, T/C [9]: 45%
viability, T/C [10]: 15.6%
viability, T/C [11]: 6.91%
viability, T/C [12]: 0.6%
viability, T/C [13]: 60.9%
viability, T/C [14]: 64%
viability, T/C [15]: 40%
viability, T/C [16]: 16.7%
viability, T/C [17]: 8.93%
viability, T/C [18]: 0.42%
viability, T/C [19]: 63.4%
viability, T/C [20]: 57.3%
viability, T/C [21]: 31.3%
viability, T/C [22]: 12.1%
viability, T/C [23]: 6.39%
viability, T/C [24]: 0.79%
viability, T/C [25]: 56.6%
viability, T/C [26]: 41.3%
viability, T/C [27]: 26.4%
viability, T/C [28]: 12.6%
viability, T/C [29]: 4.04%
viability, T/C [30]: 0.25%

O=C(C=Cc1cccc(S(=O)(=O)Nc2ccccc2)c1)NO + CC(CO)NC(=O)c1cc(-c2ccc(Cl)cc2)nn(-c2cnn(C)c2)c1=O
pIC50 (second compound 0.1 µM): 6.64
pIC50 (second compound 0.316 µM): 6.56
pIC50 (second compound 1 µM): 6.59
pIC50 (second compound 3.16 µM): 6.58
pIC50 (second compound 10 µM): 6.79
viability, T/C [1]: 73.7%
viability, T/C [2]: 65.4%
viability, T/C [3]: 41.8%
viability, T/C [4]: 27.1%
viability, T/C [5]: 4.5%
viability, T/C [6]: 0.64%
viability, T/C [7]: 81.9%
viability, T/C [8]: 65.6%
viability, T/C [9]: 48.6%
viability, T/C [10]: 27.8%
viability, T/C [11]: 5.91%
viability, T/C [12]: 0.46%
viability, T/C [13]: 84.8%
viability, T/C [14]: 68.1%
viability, T/C [15]: 45.7%
viability, T/C [16]: 25.5%
viability, T/C [17]: 5.09%
viability, T/C [18]: 1.14%
viability, T/C [19]: 78.9%
viability, T/C [20]: 63.3%
viability, T/C [21]: 49.7%
viability, T/C [22]: 21.9%
viability, T/C [23]: 5.78%
viability, T/C [24]: 0.71%
viability, T/C [25]: 70.6%
viability, T/C [26]: 52.7%
viability, T/C [27]: 44.5%
viability, T/C [28]: 20.3%
viability, T/C [29]: 5.56%
viability, T/C [30]: 0.44%
